# Assay results from patent US11716974B2, “Human liver chimeric mouse with deficient P450 oxidoreductase” (Baylor College of Medicine, priority 2016, dated 2023).
# Assays:
# [1] = Troglitazone phase II metabolites in livers of humanized and non-humanized mice with and without Por and Ugdh deletion; type: in vivo, mouse; settings: liver
# Description: Percentage of liver glucuronidated and sulfated metabolites detected in humanized livers 2 hours after i.p injection of troglitazone (600 mg/kg). FIG. 25A. Humanized FRG mice. FIG. 25B. Humanized FRG mice after murine Por and Ugdh deletion. FIG. 25C. Non-humanized FRG mice. FIG. 25D. Non-humanized FRG mice with Por and Ugdh genes deleted. Sulfate metabolites of troglitazone in red and glucuronide conjugates in blue.
# Troglitazone metabolites (two hours after i.p. injection of 600 mg/kg troglitazone) in the livers of humanized and non-humanized FRG mice with and without Por and Ugdh deletion was analyzed.
# [2] = Liver enzymes after gefitinib; settings: mouse, in vivo
# [3] = Gefitinib metabolites M4 and M28 in feces of humanized (Hu-PIRF) and control mice (mass spectrometry); type: in vivo, human liver chimeric mouse
# Description: Feces samples were weighted and homogenized in water (100 mg feces in 1,000 μl of H2O). Subsequently, 300 μl of methanol was added to 100 μl of the resulting mixture, followed by centrifugation at 15,000 g for 20 min. The supernatant was transferred to a new Eppendorf vial for a second centrifugation (15,000 g for 20 min). The final concentration of agomelatine is 2 μM. Each supernatant was transferred to an auto sampler vial for analysis (described below).
# The column temperature was maintained at 40° C. The flow rate of was 0.3 mL/min with a gradient ranging from 2% to 98% aqueous acetonitrile containing 0.1% formic acid in a 15-min run. Quadrupole time of flight mass spectrometry (QTOFMS) was operated in positive mode with electrospray ionization. Ultra-highly pure nitrogen was applied as the drying gas (12 L/min) and the collision gas. The drying gas temperature was set at 325° C. and nebulizer pressure was kept at 35 psi. The capillary voltages were set at 3.5 kV. During mass spectrometry, real time mass correction and accurate mass were achieved by continuously measuring standard reference ions at m/z 121.0508, 922.0098 in the positive mode. Mass chromatograms and mass spectra were acquired by MassHunter Workstation data Acquisition software (Agilent, Santa Clara, Calif.) in centroid and profile formats from m/z 50 to 1000. The acquisition rate was set as 1.5 spectra per second. […] Meanwhile, the quality control samples were performed every 10 samples in the process of the sample running. Due to the authentic compounds of metabolites not available, the metabolite identification was based on their exact mass and MS/MS fragments. The chromatograms and relative abundance of metabolite were performed on Qualitative Analysis software (Agilent, Santa Clara, Calif.). The relative abundance was evaluated based on integrated peak area of each metabolite.
glucuronide conjugates in non-humanized livers of control mice versus humans or humanized mice ([1]; two hours after i.p. injection of 600 mg/kg),"glucuronide conjugates upon deletion of ugdh and por ([1]; non-humanized and humanized mice, two hours after i.p. 600 mg/kg)",level of metabolite M4 in feces ([3]; murine Por-deficient Hu-PIRF mice versus Por-expressing humanized and non-humanized control mice),level of human-specific metabolite M28 in feces ([3]; murine Por-deficient Hu-PIRF mice versus control groups),Structure (SMILES),elevation of liver enzymes [2]
much higher amounts,reduced significantly,–,–,Cc1c(C)c2c(c(C)c1O)CCC(C)(COc1ccc(CC3SC(=O)NC3=O)cc1)O2 (centres unmarked) [troglitazone],–
–,–,highest level,highest level,COc1cc2ncnc(Nc3ccc(F)c(Cl)c3)c2cc1OCCCN1CCOCC1 [gefitinib],did not cause any elevation of liver enzymes
